Where two headings read alike, the source gives them in different places.

One assay has as its system P. aeruginosa ATTC 27853. The format is cell-based, Pseudomonas aeruginosa. How it is done:
(§1) Titration plates with a, b, d strains were incubated for 18 h at 35° C. under aerobic conditions, and the c strain was incubated for 18 h at 33° C. under aerobic conditions.
a) Pseudomonas aeruginosa ATCC 27853,

In assay [1] the test system is human melanoma cells (MEW 155). As to conditions: MEW 155 cells, 3 days culture. How it is done:
Human melanoma cells (MEW 155) received from Institute of Oncology were inoculated on Petri dishes (Ø3 cm, Nunc) to the number of about 75 000, suspended in 3 ml of Eagle medium+10% FBS+antibiotics. Immediately after the inoculation, solutions of tested substances were added to the cells (a substance +20 ml PBS) at 0.5 ml per dish. After culturing for 3 days, numbers of cells (all, dead and alive) at each dish were determined with NucleoCounter apparatus (Chemometec).

The next assay concerns E. coli ATTC 25922. The format is cell-based, Escherichia coli. How it is done:
as §1
d) Escherichia coli ATCC 25922

The test system of the next assay is S. aureus ATCC 25923. It is filed as cell-based, Staphylococus aureus subsp. aureus. How it is done:
as §1
b) Staphylococus aureus subsp. aureus ATCC 25923,

Another assay concerns S. aureus ATTC 43300. The format is cell-based, Staphylococus aureus subsp. aureus. How it is done:
as §1
c) Staphylococus aureus subsp. aureus ATCC 43300,

Setting [2] is: P. aeruginosa ATTC 27853, microdilution in CAMHB, 18 h at 35° C.
Setting [3] is: E. coli ATTC 25922, microdilution in CAMHB, 18 h at 35° C.
[4] abbreviates: S. aureus ATCC 25923, microdilution in CAMHB, 18 h at 35° C.
[5] abbreviates: S. aureus ATTC 43300, microdilution in CAMHB, 18 h at 33° C.

In the case of `N[C@@H](CCCCNC(=O)OCc1ccccc1)C(=O)NCCNC(=O)CCN(CCCC[C@@H](C(=O)NCCc1c[nH]c2ccccc12)N(CCC(=O)NCCNC(=O)[C@@H](N)CCCCNC(=O)OCc1ccccc1)CCC(=O)NCCNC(=O)[C@@H](N)CCCCNC(=O)OCc1ccccc1)CCC(=O)NCCNC(=O)[C@@H](N)CCCCNC(=O)OCc1ccccc1` [Compound 103], the “Minimal inhibitory concentration (MIC)” value was 149 μM/L in the assay on P. aeruginosa ATTC 27853 (setting [2]), 111 μM/L in the assay with E. coli ATTC 25922 (setting [3]), 12.9 μM/L with S. aureus ATCC 25923 (setting [4]) and 74 μM/L with S. aureus ATTC 43300 (setting [5]). Also, the “Live cells (%)” value in assay [1] (concentration 15.0 μMol dm^−3) worked out at 96.5%.

For `NCCCC[C@H](NC(=O)OCc1ccccc1Br)C(=O)NCCNC(=O)CCN(CCCC[C@@H](C(=O)NCCc1c[nH]c2ccccc12)N(CCC(=O)NCCNC(=O)[C@H](CCCCN)NC(=O)OCc1ccccc1Br)CCC(=O)NCCNC(=O)[C@H](CCCCN)NC(=O)OCc1ccccc1Br)CCC(=O)NCCNC(=O)[C@H](CCCCN)NC(=O)OCc1ccccc1Br` [Compound 104], the “Minimal inhibitory concentration (MIC)” value in the assay with P. aeruginosa ATTC 27853 (setting [2]) was determined as 64 μM/L; with E. coli ATTC 25922 (setting [3]), 30 μM/L; with S. aureus ATCC 25923 (setting [4]), 3.43 μM/L; in the assay with S. aureus ATTC 43300 (setting [5]), 30 μM/L. The “Live cells (%)” value in assay [1] (concentration 21.4 μMol dm^−3) worked out at 73.6%.

For `NCCC[C@H](NC(=O)OCc1ccccc1Cl)C(=O)NCCNC(=O)CCN(CCCC[C@@H](C(=O)NCCc1c[nH]c2ccccc12)N(CCC(=O)NCCNC(=O)[C@H](CCCN)NC(=O)OCc1ccccc1Cl)CCC(=O)NCCNC(=O)[C@H](CCCN)NC(=O)OCc1ccccc1Cl)CCC(=O)NCCNC(=O)[C@H](CCCN)NC(=O)OCc1ccccc1Cl` [Compound 106], the “Minimal inhibitory concentration (MIC)” value with P. aeruginosa ATTC 27853 (setting [2]) is 71 μM/L; in the assay with E. coli ATTC 25922 (setting [3]) it was 16.7 μM/L; with S. aureus ATCC 25923 (setting [4]) it was 3.82 μM/L; in the assay with S. aureus ATTC 43300 (setting [5]), 25 μM/L. In addition, the “Live cells (%)” value in assay [1] (concentration 10.0 μMol dm^−3) amounted to 87.7%.

On to `NCCCC[C@H](NC(=O)OCc1ccccc1Cl)C(=O)NCCNC(=O)CCN(CCC(=O)NCCNC(=O)[C@H](CCCCN)NC(=O)OCc1ccccc1Cl)CC[C@@H](C(=O)NCCc1c[nH]c2ccccc12)N(CCC(=O)NCCNC(=O)[C@H](CCCCN)NC(=O)OCc1ccccc1Cl)CCC(=O)NCCNC(=O)[C@H](CCCCN)NC(=O)OCc1ccccc1Cl` [Compound 94], for which the “Minimal inhibitory concentration (MIC)” value in the assay with P. aeruginosa ATTC 27853 (setting [2]) was 70 μM/L; with E. coli ATTC 25922 (setting [3]), 12.2 μM/L; with S. aureus ATCC 25923 (setting [4]), 0.94 μM/L; with S. aureus ATTC 43300 (setting [5]) it was 10.12 μM/L. Further, in assay [1] (concentration 12.13 μMol dm^−3), the “Live cells (%)” value worked out at 88.4%.

Regarding `NCCCC[C@H](NC(=O)OCc1ccccc1)C(=O)NCCNC(=O)CCN(CCCC[C@@H](C(=O)NCCc1c[nH]c2ccccc12)N(CCC(=O)NCCNC(=O)[C@H](CCCCN)NC(=O)OCc1ccccc1)CCC(=O)NCCNC(=O)[C@H](CCCCN)NC(=O)OCc1ccccc1)CCC(=O)NCCNC(=O)[C@H](CCCCN)NC(=O)OCc1ccccc1` [Compound 102], the “Minimal inhibitory concentration (MIC)” value was found to be 149 μM/L in the assay with P. aeruginosa ATTC 27853 (ATTC 27853, 18 h); 149 μM/L in the assay on E. coli ATTC 25922 (ATTC 25922, 18 h); 17.3 μM/L with S. aureus ATCC 25923 (ATCC 25923, 18 h); 149 μM/L in the assay on S. aureus ATTC 43300 (ATTC 43300, 18 h). The “Live cells (%)” value in assay [1] (concentration 13.6 μMol dm^−3) was found to be 98.5%.

As to `NCCCC[C@H](NC(=O)OCc1ccccc1Cl)C(=O)NCCNC(=O)CCN(CCCC(C(=O)Nc1cccnc1)N(CCC(=O)NCCNC(=O)[C@H](CCCCN)NC(=O)OCc1ccccc1Cl)CCC(=O)NCCNC(=O)[C@H](CCCCN)NC(=O)OCc1ccccc1Cl)CCC(=O)NCCNC(=O)[C@H](CCCCN)NC(=O)OCc1ccccc1Cl` (stereo partly shown) [Compound 93], the “Live cells (%)” value in assay [1] (concentration 13.65 μMol dm^−3) turned out to be 95.8%.

Regarding `N[C@@H](CCCCNC(=O)OCc1ccccc1Cl)C(=O)NCCNC(=O)CCN(CCCC(C(=O)Nc1cccnc1)N(CCC(=O)NCCNC(=O)[C@@H](N)CCCCNC(=O)OCc1ccccc1Cl)CCC(=O)NCCNC(=O)[C@@H](N)CCCCNC(=O)OCc1ccccc1Cl)CCC(=O)NCCNC(=O)[C@@H](N)CCCCNC(=O)OCc1ccccc1Cl` (stereo partly shown) [Compound 92], the “Live cells (%)” value in assay [1] (concentration 7.14 μMol dm^−3) was determined as 97.7%.

Regarding `N[C@@H](CCCCNC(=O)OCc1ccccc1Cl)C(=O)NCCNC(=O)CCN(CCC(=O)NCCNC(=O)[C@@H](N)CCCCNC(=O)OCc1ccccc1Cl)CC[C@@H](C(=O)NCCc1c[nH]c2ccccc12)N(CCC(=O)NCCNC(=O)[C@@H](N)CCCCNC(=O)OCc1ccccc1Cl)CCC(=O)NCCNC(=O)[C@@H](N)CCCCNC(=O)OCc1ccccc1Cl` [Compound 95], the “Minimal inhibitory concentration (MIC)” value is listed as 51 μM/L with P. aeruginosa ATTC 27853 (setting [2]), 32 μM/L in the assay with E. coli ATTC 25922 (setting [3]), 1.88 μM/L in the assay with S. aureus ATCC 25923 (setting [4]) and 32 μM/L with S. aureus ATTC 43300 (setting [5]).

Take `N[C@@H](CCCCNC(=O)OCc1ccccc1Cl)C(=O)NCCNC(=O)CCN(CCC[C@@H](C(=O)NCCc1c[nH]c2ccccc12)N(CCC(=O)NCCNC(=O)[C@@H](N)CCCCNC(=O)OCc1ccccc1Cl)CCC(=O)NCCNC(=O)[C@@H](N)CCCCNC(=O)OCc1ccccc1Cl)CCC(=O)NCCNC(=O)[C@@H](N)CCCCNC(=O)OCc1ccccc1Cl` [Compound 97]: the “Minimal inhibitory concentration (MIC)” value came out at 60 μM/L with P. aeruginosa ATTC 27853 (setting [2]), 7.9 μM/L in the assay on E. coli ATTC 25922 (setting [3]), 0.93 μM/L in the assay with S. aureus ATCC 25923 (setting [4]) and 20.4 μM/L in the assay with S. aureus ATTC 43300 (setting [5]).

`NCCCC[C@H](NC(=O)OCc1ccccc1Cl)C(=O)NCCNC(=O)CCN(CCCC[C@@H](C(=O)NCCc1c[nH]c2ccccc12)N(CCC(=O)NCCNC(=O)[C@H](CCCCN)NC(=O)OCc1ccccc1Cl)CCC(=O)NCCNC(=O)[C@H](CCCCN)NC(=O)OCc1ccccc1Cl)CCC(=O)NCCNC(=O)[C@H](CCCCN)NC(=O)OCc1ccccc1Cl` [Compound 100]: the “Minimal inhibitory concentration (MIC)” value stood at 41 μM/L in the assay with P. aeruginosa ATTC 27853 (setting [2]), 3.71 μM/L in the assay on E. coli ATTC 25922 (setting [3]), 0.93 μM/L with S. aureus ATCC 25923 (setting [4]) and 5.81 μM/L in the assay with S. aureus ATTC 43300 (setting [5]). The “Live cells (%)” value in assay [1] (concentration 25.7 μMol dm^−3) amounted to 0%.

Take `N[C@@H](CCCCNC(=O)OCc1ccccc1Cl)C(=O)NCCNC(=O)CCN(CCC(=O)NCCNC(=O)[C@@H](N)CCCCNC(=O)OCc1ccccc1Cl)C[C@@H](C(=O)NCCc1c[nH]c2ccccc12)N(CCC(=O)NCCNC(=O)[C@@H](N)CCCCNC(=O)OCc1ccccc1Cl)CCC(=O)NCCNC(=O)[C@@H](N)CCCCNC(=O)OCc1ccccc1Cl` [Compound 99]: the “Minimal inhibitory concentration (MIC)” value in the assay with P. aeruginosa ATTC 27853 (setting [2]) turned out to be 52 μM/L; in the assay with E. coli ATTC 25922 (setting [3]), 7.0 μM/L; with S. aureus ATCC 25923 (setting [4]), 0.6 μM/L; with S. aureus ATTC 43300 (setting [5]), 3.32 μM/L.

For `N[C@@H](CCCCNC(=O)OCc1ccccc1Cl)C(=O)NCCNC(=O)CCN(CCCC[C@@H](C(=O)NCCc1c[nH]c2ccccc12)N(CCC(=O)NCCNC(=O)[C@@H](N)CCCCNC(=O)OCc1ccccc1Cl)CCC(=O)NCCNC(=O)[C@@H](N)CCCCNC(=O)OCc1ccccc1Cl)CCC(=O)NCCNC(=O)[C@@H](N)CCCCNC(=O)OCc1ccccc1Cl` [Compound 101], the “Minimal inhibitory concentration (MIC)” value in the assay with P. aeruginosa ATTC 27853 (setting [2]) was found to be 51 μM/L; in the assay on E. coli ATTC 25922 (setting [3]), 12.0 μM/L; with S. aureus ATCC 25923 (setting [4]) it was 0.93 μM/L; in the assay on S. aureus ATTC 43300 (setting [5]) it was 10.0 μM/L.

As to `N[C@@H](CCCCNC(=O)OCc1ccccc1Cl)C(=O)NCCNC(=O)CCN(CCC[C@@H](C(=O)NCCc1c[nH]cn1)N(CCC(=O)NCCNC(=O)[C@@H](N)CCCCNC(=O)OCc1ccccc1Cl)CCC(=O)NCCNC(=O)[C@@H](N)CCCCNC(=O)OCc1ccccc1Cl)CCC(=O)NCCNC(=O)[C@@H](N)CCCCNC(=O)OCc1ccccc1Cl` [Compound 108], the “Live cells (%)” value in assay [1] (concentration 42.1 μMol dm^−3) is 94.9%.

As for `NCCCC[C@H](NC(=O)OCc1ccccc1Cl)C(=O)NCCNC(=O)CCN(CCC[C@@H](C(=O)NCCc1c[nH]cn1)N(CCC(=O)NCCNC(=O)[C@H](CCCCN)NC(=O)OCc1ccccc1Cl)CCC(=O)NCCNC(=O)[C@H](CCCCN)NC(=O)OCc1ccccc1Cl)CCC(=O)NCCNC(=O)[C@H](CCCCN)NC(=O)OCc1ccccc1Cl` [Compound 107], the “Live cells (%)” value in assay [1] (concentration 47.1 μMol dm^−3) stood at 91.1%.

Take `NCCCC[C@H](NC(=O)OCc1ccccc1Cl)C(=O)NCCNC(=O)CCN(CCC(=O)NCCNC(=O)[C@H](CCCCN)NC(=O)OCc1ccccc1Cl)C[C@@H](C(=O)NCCc1c[nH]c2ccccc12)N(CCC(=O)NCCNC(=O)[C@H](CCCCN)NC(=O)OCc1ccccc1Cl)CCC(=O)NCCNC(=O)[C@H](CCCCN)NC(=O)OCc1ccccc1Cl` [Compound 98]: the “Minimal inhibitory concentration (MIC)” value in the assay with P. aeruginosa ATTC 27853 (setting [2]) is reported as 52 μM/L; in the assay on E. coli ATTC 25922 (setting [3]), 12.3 μM/L; in the assay on S. aureus ATCC 25923 (setting [4]), 0.95 μM/L; in the assay on S. aureus ATTC 43300 (setting [5]), 8.06 μM/L. In assay [1] (concentration 4.3 μMol dm^−3), the “Live cells (%)” value is given as 97.7%.
